Measurements: patent publication US7531505B2, “Compositions and methods for promoting attachment of cells of endothelial cell lineage to medical devices” (Affinergy, Inc., priority 2006, dated 2009)
pEC50: −log10 of the molar value. Where two headings read alike, the source gives them in different places. Each block holds one substance with its values, some of them ahead of it.

Tests used:
[1] = system: human coronary endothelial cells, porcine coronary endothelial cells, and endothelial progenitor cells; test: FACS binding of biotin-tagged peptides to cells of endothelial cell lineage in whole blood; assay type: cell-based, human or Porcine
Experimental: Several of the endothelial-binding domains listed in Table 3 with desirable binding specificities (e.g., SEQ ID NOs: 9-18, 23-28, 30-32, and 35) were further characterized for binding to various cell types in whole blood by FACS, by synthesizing the peptides with a C-terminal biotin tag. Cells were harvested from cell culture flasks using trypsin/EDTA. The cells were neutralized with complete (serum-containing) media and allowed to recover at 37° C. for at least 20 minutes. Each cell type was labeled with its corresponding antibody, as set forth in Table 4, below, and incubated for 20 minutes at room temperature.
The antibody-labeled cells were rinsed twice by centrifugation using washing buffer (HBSS+1% BSA+0.1% sodium azide, sterile-filtered). One hundred (100) μL of whole blood was aliquotted into each well of a deep-well polypropylene plate. Peptides were added to each well to achieve the desired peptide concentration. Minimal volumes of cells (typically 10 μL of cells or approximately 50,000 cells) were added to each well. […] The samples were transferred to an analysis plate and analyzed for cell binding using FACS. In the analysis, controls for each cell type (with relevant antibody as per Table 4, but containing no peptide) were used to assess background fluorescence. […]

[2] = system: cells of endothelial cell lineage; test: Additional assays characterizing binding specificity of endothelial-binding domains (EC50); assay type: cell-based; details: read-out: EC50 of endothelial-binding domain
Text: In some embodiments, a binding domain that binds specifically to a particular surface, material or composition binds at least 10%, 20%, 30%, 40%, 50%, 60%, 70%, 80%, 90%, 100%, 200%, 300%, 400%, 500%, or a higher percentage, than the binding domain binds to an appropriate control such as, for example, a different material or surface, or a protein typically used for such comparisons such as bovine serum albumin. For example, binding specificity can determined by an assay in which quantitated is a signal (e.g., fluorescence, or colorimetric) representing the relative amount of binding between a peptide and target cells, as compared to peptide and non-target cells. […] In a preferred embodiment, the binding domain has binding specificity that is additionally characterized by an EC50 of 10 μM or less, and more preferably less than 1 μM. The EC50 can be determined using any number of methods known in the art, such as by generating a concentration response curve from a binding assay in which the concentration of the peptide is titered with a known amount of material or cells for which the peptide has binding specificity (see, for example, methods described in Examples 2 and 3 herein). In such case, the EC50 represents the concentration of peptide producing 50% of the maximal binding observed for that peptide in the assay. […]

[3] = ELISA of relative binding strength of biotin-tagged peptides to stainless steel stents
Experimental: As a specific illustrative example, nonspecific binding sites in wells containing stainless steel stent material in polystyrene microtiter plates were blocked with a buffer containing 1% bovine serum albumin for 2 hours at room temperature. The wells and stainless steel stent material were then washed three times with PBS-T. The plate was incubated for 1 hour at room temperature with shaking at 50 rpm. Each of 17 different phage display libraries was diluted in PBS+1% BSA and was added at a concentration of 10^10 pfu/ml in a total volume of 250 μl. After a 1 hour incubation at room temperature with shaking at 50 rpm, 70 μl of bovine serum was added, and then the plates were incubated at 37° C. with shaking for 1 hour. Unbound phage were removed by washing 3 time with 300 μl of PBS-T. After the final wash, phage bound to stents were used to infect E. coli cells. The infected cells were incubated in 96 deep-well plates, containing 1 ml of growth medium (e.g., 2xYT+5 μg/ml tetracycline) per well, at 37° C. overnight with shaking. Amplified phage-containing supernatant from each well was harvested by centrifugation. Second, third, and fourth rounds of selection were performed in a similar manner to that of the first round, using 150 μl of amplified phage supernatant from the previous round as input, and diluted with 150 μl of PBS-T+1% BSA. From the fourth round of selection, 340 individual clonal phage were then isolated and tested by plating out dilutions of phage pools to obtain single plaques. To detect phage that specifically bound to a metal such as stainless steel, conventional ELISAs were performed using an anti-M13 phage antibody conjugated to horseradish-peroxidase, followed by the addition of chromogenic agent ABTS (2,2′-azinobis(3-ethylbenzthiazoline-6-sulfonic acid). Relative binding strengths of the phage were determined by testing serial dilutions of the phage for binding to stainless steel in an ELISA, using an anti-M13 phage antibody conjugated to horseradish-peroxidase, followed by the addition of chromogenic agent ABTS, and measuring the absorbance at 405 nm. In the ELISA for determining relative binding strengths, the phage titrations were done in either buffer alone, or buffer containing 20% whole blood. The DNA sequence encoding peptides that specifically bound a metallic surface was determined.
Therefore, to determine if the binding specificity for stainless steel is primarily due to the amino acids in the C-terminal half of the amino acid sequence, or if the N-terminal region also impacts binding, peptides consisting essentially of amino acid sequences illustrated as SEQ ID NO:3 and SEQ ID NO:4 were synthesized. The peptides, as listed in Table 2 as SEQ ID NOs: 1, 3, and 4 were each synthesized with a biotin tag, and then assayed for relative binding strengths by ELISA using similar methods as that used for determining the relative binding strengths of phage displaying the peptides (as previously described herein). In this assay, serial dilutions (ranging from 0 μM to 10 μM) of each of the peptides were incubated with the stainless steel stents, washed with PBS-T, and relative binding specificity was quantitated by detecting the colorometric signal resulting from the reaction of streptavidin-alkaline phosphatase (the streptavidin portion binding to the biotin-labeled peptides) with chromogenic substrate. The EC50 was determined from the titration curve. […]

[4] = ELISA of relative binding strength in buffers from pH 2 to pH 12; details: peptide 1 μM, buffers pH 2 to pH 12
Experimental: For determining the effect of pH on binding specificity, the assay for determining relative binding strengths (by ELISA) was performed in the presence of different buffers, varying in pH in a range of from pH 2 to pH 12. For example, a buffer containing glycine and water was adjusted to pH2 using HCl; an acetate buffer was adjusted to pH 4.0 (ionic strength of about 0.001 M); a phosphate buffer (NaH2PO4) was adjusted to pH 6.0 (ionic strength of about 0.012M); a phosphate buffer (NaH2PO4) was adjusted to pH 7.0 (ionic strength of about 0.019M); a tris buffer was adjusted to pH 8.0 (ionic strength of about 0.006M); an ethanolamine buffer was adjusted to pH 10.0 (ionic strength of about 0.003M); and a phosphate buffer (NaH2PO4) was adjusted to pH 12.0 (ionic strength of about 0.044M). The final concentration of each peptide in this assay was 1 μM. Tested in this assay were surface-binding domains comprising a peptide consisting essentially of the amino acid sequence illustrated as SEQ ID NO:3, and the multimers thereof (divalent version (SEQ ID NO:7) and tetravalent version (SEQ ID NO:8)).

endothelial cells = test: Adherence of endothelial cells to coated stainless steel disks (luminescent ATP read-out); assay type: cell-based; details: coating at 10 μM for 1 hour; 25,000 endothelial cells, 10% bovine serum, 15 minutes; controls uncoated, SEQ ID NO:3 or irrelevant peptide
Experimental: The biofunctional coating composition comprising an amino acid sequence illustrated as SEQ ID NO:47 was then tested for its ability to selectively adhere cells of endothelial cell lineage to a metallic surface of a medical device. In this example, stainless steel disks were used to represent a metallic surface of a medical device. The disks were contacted with a buffered solution containing the biofunctional coating composition at a concentration of 10 μM for 1 hour at room temperature. As controls for non-specific binding, disks were either uncoated, or coated with the surface-binding domain comprising a peptide consisting essentially of an amino acid sequence of SEQ ID NO:3, or an irrelevant peptide (having no known binding specificity for metal or stainless steel or endothelial cells). The disks were washed with PBS, and then 25,000 endothelial cells were added in cell media containing 10% bovine serum, and incubated at room temperature for 15 minutes. The disks were washed in PBS, and the cells were then quantitated using a commercial luminescent cell viability assay system that measures intracellular ATP using a luminescent read-out. The luminescence was detected using a plate reader.

[5] = biotin-tagged peptide, serial dilutions 0 μM to 10 μM, stainless steel stents, read-out: EC50 expressed in nanomoles

Substance: AGSSSSVSFVAAAGSAV [SEQ ID NO:14]
binding preference between endothelial progenitor cells and endothelial cells [1]: prefer binding to endothelial progenitor cells as compared to endothelial cells

Substance: SEQ ID NO:7 (SSHRTNHKKNNPKKKNKTRGSSHRTNHKKNNPKKKNKTRG)
optimum pH for binding [4]: 7.0 pH

Substance: SGVVDAGVVAEDGVSGEASRSSHRTNHKKNNPKKKNKTR [SEQ ID NO:1]
pEC50 [3, 5]: > 6.60

Substance: SSFYGEVGYVGASLYAGGASSRG-PEG-SSHRTNHKKNNPKKKNKTRG [SEQ ID NO:47]
number of endothelial cells bound to coated stainless steel disks compared with controls (endothelial cells): several fold increase

Substance: VVFAASGVAADAGWSVS [SEQ ID NO:32]
binding preference between endothelial progenitor cells and endothelial cells [1]: preference for binding endothelial cells

The next lines start with the values.

pEC50 [2]: > 5.00
Substance: FYGEVGYVGASLYAGGAS [SEQ ID NO:19]

pEC50 [3, 5]: > 6.60
Substance: NHTISKNHKKKNKNSNKTR [SEQ ID NO:4]

optimum pH for binding [4]: 7.0 pH | pEC50 [3, 5]: > 7.30 | effect of ethylene oxide sterilization on relative binding specificity for stainless steel ([3]; ethylene oxide 642 mg/L for 2 hours, compared with unsterilized peptide): minimal to no effect | pEC50 ([3]; peptide subjected to ethylene oxide sterilization (642 mg/L for 2 hours), read-out: EC50 for binding to stainless steel after ethylene oxide sterilization): > 7.30
Substance: SSHRTNHKKNNPKKKNKTR [SEQ ID NO:3]
